From paper PMC5484532 (Biochimie, 2017)

Target: Leishmania donovani tyrosyl-tRNA synthetase (LdTyrRS) (Leishmania donovani, UniProt A0A3Q8ID88)
Experiment: X-ray co-crystal structure at […] Å
Type: biochemical

- IC50: 0.69 nM
Compound: Nc1ncnc2c1ncn2[C@@H]1O[C@H](COS(=O)(=O)NC(=O)[C@@H](N)Cc2ccc(O)cc2)[C@@H](O)[C@H]1O [TyrSA, 5'-O-[N-(L-tyrosyl)sulfamoyl]adenosine]
